Laboratory results taken from PubChem BioAssay AID248 (DTP/NCI, 2004).
Several values for one entry are separate records, joined by “and”; a condition that tells them apart may be missing. Equal values may be shown once. Toxic doses and inconclusive results are not listed. Cut-off read from the data, not from the text of the source: active = T/C of 150% or more; inactive = T/C below 125%. Square brackets hold non-standard residues; d marks the D form. Peptide text beside a SMILES is read from it. * marks the point of attachment. Cbz = O=C(OCc1ccccc1)*; Abu = CC[CH](N)C(=O)O; OBn = c1ccc(CO*)cc1

Tested on: L1210 leukemia ip in BDF1 mice, survival T/C
Test: NCI In Vivo Anticancer Drug Screen. Data for tumor model L1210 Leukemia (intraperitoneal) in B6D2F1 (BDF1) mice
Settings: endpoint: mean survival time, higher = longer survival
How it was run: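 Transplantable tumor model; survival measured in treated vs vehicle control mice. Value = treated/control.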

[1] = dose: 100.0 mg/kg/injection, schedule: Q01DX001 (ip), vehicle: carboxymethylcellulose (CMC)
[2] = dose: 200.0 mg/kg/injection, schedule: Q01DX001 (ip), vehicle: carboxymethylcellulose (CMC)
[3] = dose: 100.0 mg/kg/injection, schedule: Q04DX003 (ip), vehicle: Klucel (hydroxypropylcellulose) (HPC)
[4] = dose: 200.0 mg/kg/injection, schedule: Q04DX003 (ip), vehicle: Klucel (hydroxypropylcellulose) (HPC)
[5] = dose: 400.0 mg/kg/injection, schedule: Q04DX003 (ip), vehicle: Klucel (hydroxypropylcellulose) (HPC)
[6] = dose: 50.0 mg/kg/injection, schedule: Q01DX009 (ip), vehicle: carboxymethylcellulose (CMC)
[7] = dose: 100.0 mg/kg/injection, schedule: Q01DX009 (ip), vehicle: carboxymethylcellulose (CMC)
[8] = dose: 100.0 mg/kg/injection, schedule: Q04DX002 (ip), vehicle: carboxymethylcellulose (CMC)
[9] = dose: 200.0 mg/kg/injection, schedule: Q04DX002 (ip), vehicle: carboxymethylcellulose (CMC)
[10] = dose: 100.0 mg/kg/injection, schedule: Q01DX001 (ip), vehicle: Klucel (hydroxypropylcellulose) (HPC)
[11] = dose: 200.0 mg/kg/injection, schedule: Q01DX001 (ip), vehicle: Klucel (hydroxypropylcellulose) (HPC)
[12] = dose: 400.0 mg/kg/injection, schedule: Q01DX001 (ip), vehicle: Klucel (hydroxypropylcellulose) (HPC)
[13] = dose: 100.0 mg/kg/injection, schedule: Q01DX009 (ip), vehicle: saline
[14] = dose: 200.0 mg/kg/injection, schedule: Q01DX009 (ip), vehicle: saline
[15] = dose: 400.0 mg/kg/injection, schedule: Q01DX009 (ip), vehicle: saline
[16] = dose: 100.0 mg/kg/injection, schedule: Q01DX009 (ip), vehicle: Klucel (hydroxypropylcellulose) (HPC)
[17] = dose: 200.0 mg/kg/injection, schedule: Q01DX009 (ip), vehicle: Klucel (hydroxypropylcellulose) (HPC)
[18] = dose: 400.0 mg/kg/injection, schedule: Q01DX009 (ip), vehicle: Klucel (hydroxypropylcellulose) (HPC)

Measured: T/C

CC1(C)CC=CC(COC(=O)c2ccccc2C(=O)O)C1 (stereo unspecified)
inactive: [1] 102 % of control | [2] 107 % of control | dose: 400.0 mg/kg/injection, schedule: Q01DX001 (ip), vehicle: carboxymethylcellulose (CMC) 96 % of control

CC(C)(C)S(=O)CCO (stereo unspecified)
inactive: dose: 100.0 mg/kg/injection, schedule: Q04DX002 (ip), vehicle: saline 109 % of control | dose: 200.0 mg/kg/injection, schedule: Q04DX002 (ip), vehicle: saline 103 % of control | dose: 400.0 mg/kg/injection, schedule: Q04DX002 (ip), vehicle: saline 103 % of control

COc1ccc(OC)c(C(=O)CCCCCCCCC(=O)O)c1
inactive: [3] 109 % of control | [4] 95 % of control | [5] 101 % of control

C/C=C(\C)C(=O)OC1CC(C)=C2C(=O)C=C(C)C2C2OC(=O)C(C)C12 (stereo unspecified)
inactive: [3] 98 % of control | [4] 102 % of control | [5] 96 % of control

CCCCOP(=O)(/C=C\c1ccccn1)OCCCC
inactive: [6] 95 % of control and 97 % of control | dose: 50.0 mg/kg/injection, schedule: Q04DX003 (ip), vehicle: carboxymethylcellulose (CMC) 96 % of control | [7] 94 % of control and 101 % of control | [8] 100 % of control and 102 % of control | dose: 100.0 mg/kg/injection, schedule: Q04DX003 (ip), vehicle: carboxymethylcellulose (CMC) 108 % of control | dose: 200.0 mg/kg/injection, schedule: Q01DX009 (ip), vehicle: carboxymethylcellulose (CMC) 102 % of control and 117 % of control | [9] 106 % of control and 91 % of control | dose: 200.0 mg/kg/injection, schedule: Q04DX003 (ip), vehicle: carboxymethylcellulose (CMC) 102 % of control

ClCC1=NCCN1
inactive: dose: 12.5 mg/kg/injection, schedule: Q04DX002 (ip), vehicle: Klucel (hydroxypropylcellulose) (HPC) 97 % of control | dose: 25.0 mg/kg/injection, schedule: Q04DX002 (ip), vehicle: Klucel (hydroxypropylcellulose) (HPC) 97 % of control | dose: 50.0 mg/kg/injection, schedule: Q04DX002 (ip), vehicle: Klucel (hydroxypropylcellulose) (HPC) 97 % of control

CN(C=O)COCN(C)C=O
inactive: dose: 100.0 mg/kg/injection, schedule: Q01DX001 (ip), vehicle: other 98 % of control | dose: 100.0 mg/kg/injection, schedule: Q04DX003 (ip), vehicle: other 98 % of control | dose: 200.0 mg/kg/injection, schedule: Q01DX001 (ip), vehicle: other 97 % of control | dose: 200.0 mg/kg/injection, schedule: Q04DX003 (ip), vehicle: other 102 % of control | dose: 400.0 mg/kg/injection, schedule: Q01DX001 (ip), vehicle: other 97 % of control | dose: 400.0 mg/kg/injection, schedule: Q04DX003 (ip), vehicle: other 104 % of control

O=S(=O)(OCC#CCOS(=O)(=O)c1cccs1)c1cccs1
inactive: dose: 6.2 mg/kg/injection, schedule: Q01DX009 (ip), vehicle: Klucel (hydroxypropylcellulose) (HPC) 101 % of control | dose: 12.5 mg/kg/injection, schedule: Q01DX009 (ip), vehicle: Klucel (hydroxypropylcellulose) (HPC) 111 % of control | dose: 25.0 mg/kg/injection, schedule: Q01DX009 (ip), vehicle: Klucel (hydroxypropylcellulose) (HPC) 105 % of control | [10] 109 % of control | [3] 97 % of control | [11] 106 % of control | [4] 105 % of control | [12] 103 % of control

N#CCc1ccccc1S(=O)(=O)O
inactive: [13] 105 % of control | dose: 100.0 mg/kg/injection, schedule: Q04DX003 (ip), vehicle: saline 98 % of control | [14] 100 % of control | dose: 200.0 mg/kg/injection, schedule: Q04DX003 (ip), vehicle: saline 102 % of control | [15] 103 % of control | dose: 400.0 mg/kg/injection, schedule: Q04DX003 (ip), vehicle: saline 101 % of control

CCOC(=O)C(CC(=O)O)C1=CCCc2ccccc21 (stereo unspecified)
inactive: [10] 96 % of control | [16] 90 % of control | [11] 104 % of control | [17] 91 % of control | [12] 90 % of control | [18] 90 % of control

CCC(NC(=O)OCc1ccccc1)C(=O)NC(Cc1ccc(O)cc1)C(=O)OCc1ccccc1 (stereo unspecified) (Cbz-[Abu]-Tyr-OBn; configuration not given here)
inactive: [16] 102 % of control | [17] 91 % of control | [18] 99 % of control

COc1cc(NC2CCCCC2O)c2nc(-c3ccc(Cl)cc3)ccc2c1 (stereo unspecified)
inactive: [13] 98 % of control | [14] 90 % of control | [15] 86 % of control

CC(=O)Nc1c(Cc2cc(O)c3ncccc3c2NC(C)=O)cc(O)c2ncccc12
inactive: dose: 75.0 mg/kg/injection, schedule: Q01DX001 (ip), vehicle: other 96 % of control | dose: 150.0 mg/kg/injection, schedule: Q01DX001 (ip), vehicle: other 100 % of control | dose: 300.0 mg/kg/injection, schedule: Q01DX001 (ip), vehicle: other 103 % of control

O=C(C=C(C(F)(F)F)C(F)(F)F)c1c2ccccc2cc2ccccc12
inactive: dose: 0.18 mg/kg/injection, schedule: Q01DX009 (ip), vehicle: DMSO 87 % of control | dose: 0.37 mg/kg/injection, schedule: Q01DX009 (ip), vehicle: DMSO 99 % of control | dose: 0.75 mg/kg/injection, schedule: Q01DX009 (ip), vehicle: DMSO 97 % of control | dose: 1.5 mg/kg/injection, schedule: Q01DX009 (ip), vehicle: DMSO 93 % of control | dose: 3.0 mg/kg/injection, schedule: Q01DX009 (ip), vehicle: DMSO 93 % of control and 88 % of control | dose: 3.0 mg/kg/injection, schedule: Q04DX003 (ip), vehicle: DMSO 100 % of control | dose: 6.0 mg/kg/injection, schedule: Q04DX003 (ip), vehicle: DMSO 98 % of control | dose: 12.0 mg/kg/injection, schedule: Q04DX003 (ip), vehicle: DMSO 97 % of control | dose: 12.5 mg/kg/injection, schedule: Q04DX003 (ip), vehicle: DMSO 93 % of control

NC(=O)c1ccccc1OC(=O)Nc1ccc(F)cc1
inactive: dose: 50.0 mg/kg/injection, schedule: Q01DX001 (ip), vehicle: carboxymethylcellulose (CMC) 100 % of control | [6] 97 % of control | [1] 103 % of control | [7] 100 % of control and 103 % of control | [8] 100 % of control and 109 % of control | [2] 102 % of control | [9] 100 % of control | dose: 400.0 mg/kg/injection, schedule: Q04DX002 (ip), vehicle: carboxymethylcellulose (CMC) 86 % of control

CCCCCC1CCC(O)CC1 (stereo unspecified)
inactive: [16] 95 % of control | [3] 106 % of control | [17] 90 % of control | [4] 111 % of control | [18] 105 % of control | [5] 103 % of control
